Marks after values point to notes of the source that are not given here.
Tests used:
[1] = test system: N-methyl nitrosourea (MNU) induced mammary carcinogenesis; assay: MNU-induced rat mammary carcinogenesis study, dietary auraptene; assay type: in vivo, female Sprague-Dawley rats; details: for Incidence (percentage of rats with tumor) / Multiplicity (average number of tumors per rat): means ± SE; for tumor burden: average tumor weight per rat / tumor burden: total tumor weights per rat: at necropsy
Method: A total of 128 female Sprague-Dawley rats (28 days of age), purchased from Harlan Teklad (Madison, WI), were used for this experiment. They were housed two per cage, in a temperature and humidity controlled AAALAC facility under 12 h light/dark cycle. All procedures were approved by LSUHSC Institutional Animal Care and Use Committee in accordance with NIH guidelines. They were fed test diets as described below and allowed access to food and water ad libitum.
Rats (28 days of age) were divided up randomly into groups of 24–26 each and were handled daily to get them accustomed to human touch. At 42 days of age the rats were shifted to the test diet. Control group and MNU only group were fed with Teklad (powdered diet) only. MNU/Auraptene 200 ppm group and MNU/Auraptene 500 ppm group received 200 ppm and 500 ppm of auraptene respectively, mixed in the diet for the duration of the study. The doses were selected from the pilot study conducted with a small number of animals. In addition to the 200 ppm dose of auraptene, which indicated the chemopreventive effect of auraptene, a higher dose of auraptene at 500 ppm was added to this study to see any increased chemopreventive effects. Auraptene has been administered in diet at 100 ppm and 500 ppm in other models of cancer. The diet was prepared once a week and stored in cold room. The food was replaced on Monday, Wednesday and Friday or as needed. […] At 50 days of age all the groups except the control group received intraperitoneal MNU injection (50 mg/kg bw in sterile acidified saline). The control group received vehicle only. The rats were palpated for tumors twice a week starting at 2 weeks after MNU administration. Any tumors felt during palpation were recorded by location. The rats were weighed once a week. A diet consumption analysis was done once to see if rats were consuming enough feed across all the groups and there was no significant difference in food consumption between the groups (data not shown). Any rats found to be moribund during the study were sacrificed within 24 h and necropsied. At 18 weeks after MNU administration, rats were euthanized by carbon dioxide asphyxiation and necropsied. The tumor location and weight of the tumor were marked in the necropsy sheet. Mammary fat pads and the tumors were collected in formalin, OCT compound and liquid nitrogen.
The rat body weight data was compared between groups by One-Way ANOVA followed by Tukey test. Groups were compared for the total number of tumors per rat by the nonparametric Kruskal-Wallis test. Time to tumor was estimated and compared among groups using survival curve analysis by the Log-rank test. The Cochran-Armitage test was used to test for trends in binomial response to different dose levels. Analysis was performed using StatXact (Cytel Software Corporation, Cambridge MA) and SPSS (SPSS Inc., Chicago IL). The cell proliferation assays and western blot data were analyzed by One-Way ANOVA followed by Tukey test.

[2] = parameters: method as in PMID 18444171; details: male Sprague-Dawley rats, cited from earlier work
[3] = Rat body weight and gross behavior in the tumor study; assay type: in vivo, female Sprague-Dawley rats
Description: Rats (28 days of age) were divided up randomly into groups of 24–26 each and were handled daily to get them accustomed to human touch. At 42 days of age the rats were shifted to the test diet. Control group and MNU only group were fed with Teklad (powdered diet) only. MNU/Auraptene 200 ppm group and MNU/Auraptene 500 ppm group received 200 ppm and 500 ppm of auraptene respectively, mixed in the diet for the duration of the study. The doses were selected from the pilot study conducted with a small number of animals. In addition to the 200 ppm dose of auraptene, which indicated the chemopreventive effect of auraptene, a higher dose of auraptene at 500 ppm was added to this study to see any increased chemopreventive effects. Auraptene has been administered in diet at 100 ppm and 500 ppm in other models of cancer. The diet was prepared once a week and stored in cold room. The food was replaced on Monday, Wednesday and Friday or as needed. […] At 50 days of age all the groups except the control group received intraperitoneal MNU injection (50 mg/kg bw in sterile acidified saline). The control group received vehicle only. […] Any tumors felt during palpation were recorded by location. […]
The rat body weight data was compared between groups by One-Way ANOVA followed by Tukey test. […] The cell proliferation assays and western blot data were analyzed by One-Way ANOVA followed by Tukey test.

[4] = test system: eukaryotic Initiation Factor 4E (eIF4E); assay: Western blot of eIF4E expression in rat mammary tumors; assay type: in vivo, female Sprague-Dawley rats; details: dietary auraptene, data not shown
Method: The mammary tumors from the female Sprague-Dawley rats were analyzed for cyclin D1 expression and eukaryotic Initiation Factor 4E (eIF4E) as previously described. Briefly, samples were first homogenized in RIPA buffer [50 mM Tris-HCL (pH 7.4), 1% Triton-X, 150 mM NaCl, 1 mM EDTA, 1 mM sodium orthovanadate, 1 mM PMSF, 1 μg of aprotinin, leupeptin and pepstatin and 1 mM sodium fluoride]. The proteins were measured by Bradford method (using BSA as a standard), followed by the addition of 2 × sample buffer [0.125 M Tris, 10% (w/v) SDS, 40% (v/v) glycerol, 0.04% (w/v) bromophenol blue, and 80 mM dithiothreitol]. Samples were heated to 95°C for 5 min, and 10 μg of protein/well was loaded and resolved. The proteins were then transferred and detected for cyclin D1 expression as mentioned above. Lysate from MCF-7 cells treated with IGF-1 was used as positive control for cyclin D1.

[5] = 200 ppm in diet, 112 days (16 weeks) after MNU
[6] = 200 ppm in diet, 126 days (18 weeks) after MNU
[7] = 200 ppm in diet, 126 days (18 weeks) after MNU, listed as Aur.
[8] = 500 ppm in diet, 16 weeks, vs MNU only group
[9] = 500 ppm in diet, 112 days (16 weeks) after MNU
[10] = 500 ppm in diet, 126 days (18 weeks) after MNU
[11] = 500 ppm in diet, 126 days (18 weeks) after MNU, listed as Aur.
[12] = 500 μmol/kg bw p.o. gavage, 1–4 h

## CC(C)=CCC/C(C)=C/COc1ccc2ccc(=O)oc2c1 [auraptene]
[1]; 200 ppm in diet
  Median time to tumor: 91 days
  first palpable tumor after MNU injection: 38 days
  tumor burden: average tumor weight per rat: 2.94 ± 0.79 grams
  tumor burden: total tumor weights per rat: 6.52 ± 1.49 grams
[1]; [5]
  Incidence (percentage of rats with tumor): 76.9 ± 8.4%
  Multiplicity (average number of tumors per rat): 1.69 ± 0.27
[1]; [6]
  Incidence (percentage of rats with tumor): 81%
  Multiplicity (average number of tumors per rat): 2.08
[1]; [7]
  Incidence (percentage of rats with tumor): 80.7 ± 7.8%
  Multiplicity (average number of tumors per rat): 2.08 ± 0.33
[1]; 200 ppm in diet, compared to MNU group
  delay of median time to tumor: 11 days
[1]; 500 ppm in diet
  Median time to tumor: 119 days
  first palpable tumor after MNU injection: 49 days
  tumor burden: average tumor weight per rat: 1.79 ± 0.54 grams
  tumor burden: total tumor weights per rat: 6.50 ± 2.10 grams
[1]; [8]
  inhibition of tumor multiplicity: 37%
  suppression of tumor incidence: 46%
[1]; [9]
  Incidence (percentage of rats with tumor): 45.8 ± 10.4^b %
  Multiplicity (average number of tumors per rat): 1.21 ± 0.35^c
[1]; [10]
  Incidence (percentage of rats with tumor): 67%
  Multiplicity (average number of tumors per rat): 2.0
[1]; [11]
  Incidence (percentage of rats with tumor): 66.7 ± 9.8%
  Multiplicity (average number of tumors per rat): 2.00 ± 0.43
[1]; 500 ppm in diet, compared to MNU only group
  delay of median time to tumor: 39 days
[1]; 500 ppm in diet, end of study, MNU only group had 65
  total number of tumors in group: 48 tumors
[1]; 500 ppm in diet, listed as Aur.
  Median time to tumor: 119^d days
[2]; [12]
  concentration in large intestine: ≤ 20 nmol/g
  concentration in small intestine: ≤ 100 nmol/g
  concentration in stomach: ~ 2000 nmol/g
[2]; within 1–4 h of oral administration
  hepatic concentration: ~ 25 μm
[3]; 200 and 500 ppm in diet, MNU treated groups
  effect on rat body weight: did not significantly affect body weight
[3]; dietary auraptene up to 500 ppm, no observable change in gross behavior, no significant weight loss
  tolerability in rats: well tolerated
[4]
  eIF4E protein expression in rat mammary tumors: no significant change

— paper PMC2724550, “Citrus auraptene suppresses cyclin D1 and significantly delays N-methyl nitrosourea induced mammary carcinogenesis in female Sprague-Dawley rats” (BMC Cancer, 2009)
